Test results reported in article PMC9050848, “Carbamoyl-N-aryl-imine-urea: a new framework to obtain a putative leishmanicidal drug-candidate” (RSC Advances, 2020).
Where two headings read alike, the source gives them in different places.

Experiments:
[1] = system: J774.A1 cell lines (macrophages); assay: Cytotoxicity against J774.A1 macrophages, MTT assay; assay type: cell-based, murine (BALB/c); settings: Mus musculus, read-out: IC50 (concentration required to give 50% death of cells)
Experimental: Initially the cytotoxic profile of compounds 9a–e and 10a–e against J774.A1 cell lines (i.e., BALB/c macrophage cell lines) was investigated. Therefore, these cells were exposed to different concentrations (0.1–100 μM) of compounds 9a–e and 10a–e and the cytotoxic effect was measured after 48 h of drug incubation, by using MTT-based assay. The cytotoxicity was expressed as IC50 values (that means the concentration of a drug that kills half of the tested cells in culture). As depicted in Table 1, most compounds have shown low cytotoxic activity with IC50 > 100 μM.
These adherent-phenotype macrophage lines were cultured in Dulbecco's Modified Eagle's medium (DMEM, Sigma) supplemented with 10% FBS at 37 °C with 95% humidity and 5% CO2.
To evaluate the cytotoxic activity against the J774.A1 cell line, the host cells were plated in 96-well cell culture plate (flat bottom, clear, Corning) at 2 × 10^5 cells per well in complete culture medium 10% FBS at 37 °C. After 1 h wells were washed with warm Hank's Balanced Salt solution (HBSS) to remove non-adherent cells, leaving approximately 10^5 adherent macrophages. All cultures were done in DMEM complete supplemented with 10% FBS. The compounds and pentamidine were added at serial concentrations (0.1–100 μM). The cells were also cultured with medium free from compounds or vehicle (basal growth control) or in media with DMSO 0.1% (vehicle control). Positive control (dead cells) was obtained by cellular lysis with 1% of Triton 100× in DMEM complete (because it is a detergent in this concentration, Triton 100× destabilizes the cell membrane of macrophages, causing cell death). The cytotoxicity was evaluated by the MTT assay.[31] This assay consists of indirectly measuring cell viability through the mitochondrial enzymatic activity of macrophages. Viable cells are capable of reducing MTT to formazan. For this, after the incubation of plate for 48 h, 100 μL of MTT solution (0.5 mg mL^−1, in DMEM medium) was added per well, and the plate was incubated for 1 h. Then, the supernatant of each well was retired and was added 150 μL of DMSO. The absorbance was determined at 570 nm in a microplate reader. The cell viability of the cultures treated with the compounds was compared to the death pattern obtained in the control cultures. In the positive control, the cell death was confirmed when the optical density was equal to zero, confirming that the cells were not viable. Data obtained from experiments were expressed as the mean ± standard error of the mean (mean ± S.E.M.) and statistical differences between the treated and the vehicle groups of experiments were evaluated by ANOVA and Dunnett hoc tests.

[2] = system: L. braziliensis intracellular amastigotes; assay: Leishmanicidal activity against intracellular amastigote forms of L. braziliensis in J774.A1 macrophages; assay type: cell-based; settings: Leishmania braziliensis; for IC50: read-out: IC50 (concentration required to give 50% death of parasites); for Emax: maximum toxicity vs 0.1% DMSO group, read-out: Maximum effect (% ± S.E.M.)
Text: Further, the leishmanicidal activity against intracellular amastigotes forms of L. braziliensis were also investigated (Table 2).
(§1) Promastigotes of L. amazonensis (MHOM/BR/77/LTB0016) were obtained from Dr Eduardo Caio Torres dos Santos at Oswaldo Cruz Institute – Fiocruz. Promastigotes of L. braziliensis (MHOM/BR/01/BA788) were obtained from Dr Valéria de Matos Borges at Gonçalo Moniz Research Center – Fiocruz. The parasites were maintained in vitro in Schneider's medium, supplemented with 10% FBS and 2% human urine at 27 °C in BOD incubator.
(§2) Initially, compounds 9a–e and 10a–e were evaluated at screening concentration of 30 μM against L. amazonensis, using DMSO 0.03% as vehicle control, since this was the DMSO concentration (vehicle) remaining in each well with the tested compounds. […] Vehicle control used was DMSO 0.1%, since this was the concentration of DMSO (vehicle) existing in each well with the tested substances in the highest concentration used.
(§3) To assess the activity of the test derivatives against the amastigote stage of L. amazonensis and L. braziliensis the model of infection in coverglass was realized.[31] The murine macrophages (J774.A1 cell line) were prepared in 24-well cell culture plate (flat bottom, clear, Corning) at 2 × 10^5 adherent cells per well, infected with 2 × 10^6 promastigotes in glass coverslips placed inside 1 mL medium culture. The cultures were cultured or not with the test derivatives or reference drugs, and kept for 24 h at 37 °C, 5% CO2. After 24 h of incubation, the coverslips were washed, stained with Giemsa–May–Grünwald, and intracellular amastigotes were counted in 100 macrophages, using an optical microscope, on the objective of 100×. Thus, during the counting of 100 macrophages, the amount of amastigotes present within these defence cells was also determined. Data obtained from in vitro experiments were expressed as the mean ± S.E.M. of duplicate cultures of representative assays. Statistical differences between the treated and the control groups were evaluated by ANOVA and Dunnett hoc tests. Differences with a p value < 0.05 or lower were considered significant.

[3] = system: L. amazonensis intracellular amastigotes; assay: Leishmanicidal activity against intracellular amastigote forms of L. amazonensis in J774.A1 macrophages; assay type: cell-based; settings: for Effect on the number of intracellular amastigotes: L. amazonensis, screening concentration 30 μM; for IC50 / Emax: Leishmania amazonensis; for IC50: read-out: IC50 (concentration required to give 50% death of parasites); for Emax: maximum toxicity vs 0.1% DMSO group, read-out: Maximum effect (% ± S.E.M.)
Experimental: Considering that L. amazonensis is one of the causative species of cutaneous leishmaniasis in Brazil,[20] we have investigated the leishmanicidal effect of compounds 9a–e and 10a–e against L. amazonensis amastigotes forms. Initially, all compounds were evaluated at 30 μM. […] Then, they were selected to determine their IC50 value for intracellular amastigote forms of L. amazonensis.
as §1, §2, §3

[4] = system: L. amazonensis; assay: Murine model of cutaneous leishmaniasis induced by L. amazonensis (efficacy); assay type: in vivo, BALB/c mice; settings: 30 μmol per kg per day × 28 days
Experimental: So, BALB/c mice infected with L. amazonensis were treated during 28 days with compound 10e (30 μmol per kg per day, i.p.) or with the standards miltefosine (30 μmol per kg per day, p.o.) and meglumine antimoniate (30 μmol per kg per day, i.p.).
(§4) This study (protocol number 2013.02) was approved by the Ethics Committee for Animal Experimentation of the Federal University of Alagoas (Brazil). All animals received humane care in compliance with the ‘Principles of laboratory animal care’ formulated by the National Society for Medical Research and the ‘Guide for the care and use of laboratory animals’ prepared by the National Academy of Sciences (Washington, DC). Then, 1 × 10^5 stationary promastigotes (5 days of culture in Schneider's medium) of L. amazonensis were inoculated subcutaneously into the right ear dermis of 6 week-old female BALB/c mice weighing ca. 20 g. and later treated with 10e (i.p.), miltefosine (p.o.) or meglumine antimoniate (i.p.) at 30 μmol kg^−1 × 28 days. The vehicle to solubilize 10e (LASSBio-1736) and standard drugs was Tween 20 (50 μL) and sterile water for injection, which was also administrated by i.p. route in two controls groups (non-infected control and infected control). The lesion size was measured using a paquimeter.[32] The parasite loads of infected ears and draining lymph nodes were determined using a quantitative limiting-dilution assay.[33] Toxicity was also evaluated due to alterations on spleen weight and by biochemistry dosages in plasma, performed according to the manufacturer's instructions (Doles, BRA). Data obtained from experiments were expressed as the mean ± S.E.M. and statistical differences between the treated and the vehicle groups of experiments were evaluated by ANOVA and Dunnett hoc tests.

[5] = Toxicity in treated infected mice (survival, spleen weight, serum biochemistry); assay type: in vivo; settings: infected BALB/c mice, 30 μmol kg−1 daily for 28 days, n = 5
Experimental: The survival of BALB/c mice infected with L. amazonensis untreated and treated during 28 days with the daily dose of 30 μmol kg^−1 with meglumine antimoniate, miltefosine and 10e (LASSBio-1736) was analyzed. Animal mortality was not observed for the groups treated with 10e and miltefosine, while 20% of death was identified from the 25th day of treatment with meglumine antimoniate (Fig. 11). After the end of treatment, the animal's toxicity was investigated looking for any alterations on spleen weight and on alanine aminotransferase (ALT), aspartate aminotransferase (AST), creatinine (CREA) and urea serum levels.
as §4

[6] = J774.A1 macrophages, 48 h incubation, MTT, 0.1–100 μM
[7] = J774.A1, L. braziliensis intracellular amastigotes, 24 h
[8] = J774.A1, L. braziliensis intracellular amastigotes
[9] = L. amazonensis amastigotes, ratio of IC50 values
[10] = J774.A1, L. amazonensis intracellular amastigotes, 24 h
[11] = J774.A1, L. amazonensis intracellular amastigotes

Compound: O=C(N/N=C/c1ccc([N+](=O)[O-])o1)NNC(=O)c1ccc(Cl)cc1 [LASSBio-1491 (9a), 4-chloro-phenylcarbamoyl-N-5-nitrofuranimine-urea]
- IC50 [1, 6]: > 100 µM

Compound: O=C(N/N=C/c1ccc([N+](=O)[O-])o1)NNC(=O)c1ccc(Cl)cc1Cl [LASSBio-1703 (10a), 2,4-dichloro-phenylcarbamoyl-N-5-nitrofuranimine-urea]
- IC50 [1, 6]: > 100 µM

Compound: O=C(N/N=C/c1ccccc1O)NNC(=O)c1ccc(Cl)cc1 [LASSBio-1704 (9b), 4-chloro-phenylcarbamoyl-N-2-hydroxyphenylimine-urea]
- IC50 [2, 7]: > 100 µM
- Emax [2, 8]: 48.1 ± 4.5%
- IC50 [1, 6]: > 100 µM
- Times less potent than miltefosine [3, 9]: ~4.0 times
- Times less potent than pentamidine [3, 9]: about 2.5 times
- Effect on the number of intracellular amastigotes [3]: decreased the number of intracellular amastigotes
- IC50 [3, 10]: 85.3 ± 5 µM
- Emax [3, 11]: 55.6 ± 1.4%

Compound: O=C(N/N=C/c1ccccc1O)NNC(=O)c1ccc(Cl)cc1Cl [LASSBio-1705 (10b), 2,4-dichloro-phenylcarbamoyl-N-2-hydroxyphenylimine-urea]
- IC50 [1, 6]: 78.1 ± 4.5 µM

Compound: O=C(N/N=C/c1ccc(O)cc1)NNC(=O)c1ccc(Cl)cc1 [LASSBio-1706 (9d), 4-chloro-phenylcarbamoyl-N-4-hydroxyphenylimine-urea]
- IC50 [2, 7]: 3.6 ± 0.6 µM
- Emax [2, 8]: 70.4 ± 1.9%
- IC50 [1, 6]: 86.2 ± 8.7 µM
- Effect on the number of intracellular amastigotes [3]: decreased the number of intracellular amastigotes
- IC50 [3, 10]: > 100 µM

Compound: O=C(N/N=C/c1ccc(O)cc1)NNC(=O)c1ccc(Cl)cc1Cl [LASSBio-1707 (10d), 2,4-dichloro-phenylcarbamoyl-N-4-hydroxyphenylimine-urea]
- IC50 [2, 7]: > 100 µM
- IC50 [1, 6]: > 100 µM
- Effect on the number of intracellular amastigotes [3]: decreased the number of intracellular amastigotes
- IC50 [3, 10]: > 100 µM
- Emax [3, 11]: 44.4 ± 0.2%

Compound: O=C(N/N=C/c1cccc(O)c1)NNC(=O)c1ccc(Cl)cc1Cl [LASSBio-1708 (10c), 2,4-dichloro-phenylcarbamoyl-N-3-hydroxyphenylimine-urea]
- IC50 [2, 7]: > 100 µM
- IC50 [1, 6]: > 100 µM
- Effect on the number of intracellular amastigotes [3]: decreased the number of intracellular amastigotes
- IC50 [3, 10]: > 100 µM
- Emax [3, 11]: 31 ± 1.7%

Compound: O=C(N/N=C/c1cccc(O)c1)NNC(=O)c1ccc(Cl)cc1 [LASSBio-1709 (9c), 4-chloro-phenylcarbamoyl-N-3-hydroxyphenylimine-urea]
- IC50 [1, 6]: 85.2 ± 2.3 µM

Compound: O=C(N/N=C/c1ccc(C(F)(F)F)cc1)NNC(=O)c1ccc(Cl)cc1 [LASSBio-1737 (9e)]
- IC50 [1, 6]: > 100 µM

Compound: CCCCCCCCCCCCCCCCOP(=O)([O-])OCC[N+](C)(C)C [Miltefosine, reference compound]
- Appearance of lesions on the first day after end of treatment (photographs) [4]: complete healing of the nodules and ulcers
- Lesion sizes of infected ear ([4]; 10e and meglumine antimoniate i.p., miltefosine p.o.): reduced the lesion sizes of infected ear
- Parasite load in infected ear ([4]; limiting-dilution assay): decreased parasite load in infected ear
- IC50 ([2]; J774.A1, 24 h): 32.1 ± 1.1 µM
- Emax [2, 8]: 84 ± 1.5%
- IC50 ([1]; J774.A1, 48 h): > 100 µM
- IC50 ([3]; J774.A1, 24 h): 22 ± 1.8 µM
- Emax [3, 11]: 58.1 ± 4.9%
- Animal mortality [5]: not observed

Compound: N=C(N)c1ccc(OCCCCCOc2ccc(C(=N)N)cc2)cc1 [Pentamidine, reference compound]
- IC50 [2, 7]: 78.4 ± 4.7 µM
- Emax [2, 8]: 61.7 ± 2.2%
- IC50 [1, 6]: 35.5 ± 3.4 µM
- IC50 [3, 10]: 32.8 ± 4.6 µM
- Emax [3, 11]: 59.1 ± 5.6%

Compound: meglumine antimoniate [reference compound]
- Appearance of lesions on the first day after end of treatment (photographs) [4]: the lesions showed an intense swelling and ulcerated
- Animal mortality [5]: 20%
